{"source": "patent US20140056960A1", "about": "“Methods for Improving Fracture Healing and Bone Formation” (Imperial Innovations Limited, priority 2010, published 2014)", "key": {"[1]": {"system": "human muscle-derived stromal cells", "details": "cited from earlier work"}, "[2]": {"system": "intramuscular bone-inducing implant", "details": "daily intra-peritoneal administration; cited from earlier work"}, "tibial fracture [3]": {"system": "tibial fracture", "assay": "murine tibial fracture model: callus mineralization (microCT) and histology after local administration at fracture site", "format": "in vivo, mouse", "details": "for fracture healing / callus mineralization: local, approx. 1 ng or 50 ng/kg (50 ng/ml, 20 microlitres PBS) at time of fracture and 24 hr later, day 28; for fracture healing / percentage callus mineralization: exogenous alarmin at fracture site days 0 and 1 (rmHMGB1 20 μL at 50 ng/ml), day 28 microCT", "protocol": "Percentage callus mineralization was determined from the fracture site to 1 mm proximally (mean+/−SEM). FIG. 5. Dose response of exogenous TNF-α in vivo. 20 μL of PBS with rhTNF-α at the corresponding dose was injected at the fracture site at days 0 and 1 in C57BI/6 mice. At day 28, mice were harvested and limbs scanned by microCT in a blinded fashion. Percentage callus mineralization was determined from the fracture site to 1 mm proximally (threshold density of 350 mg/cm^3). * p<0.05, ** p<0.01. FIG. 7A. […] Percentage callus mineralization was determined from the fracture site to 1 mm proximally (mean+/−SEM). FIG. 18. […] C57BI6 mice were subjected to fracture model with addition of 20 μL of rmHMGB1 at 50 ng/ml at the fracture site at days 0 and 1 compared to controls. Addition of exogenous S100A8 or S100A9 or S100A8/9 had no effect, possibly because the fracture environment may already contain optimal amounts of S100 A8 or A9 proteins. All mice were harvested at day 28 and limbs scanned by microCT in a blinded fashion. Percentage callus mineralization was determined from the fracture site to 1 mm proximally (mean+/−SEM). […] Inflammation plays a vital role in early fracture repair^11,12. In murine models, TNF-α, IL-1 and IL-6 are expressed at the fracture site within 24 hours of injury^13,14. Biphasic expression of TNF-α and IL-1β appears to be linked to the initiation of fracture repair and later to endochondral maturation^14,15. In our murine model, callus mineralization at day 28 was enhanced when TNF-α, at a concentration of 50 ng/kg was injected locally following injury (day 0) and 24 hours later."}, "rib fracture": {"system": "rib fracture", "details": "cited from earlier work"}, "osteoporotic fracture": {"system": "osteoporotic fracture", "assay": "osteoporotic fracture repair in ovariectomised mice, callus mineralization by microCT", "format": "in vivo, mouse", "details": "for percentage callus mineralization / fracture healing: day 14, 20 μL rhTNF-α 50 ng/ml immediately post fracture and 1 day later, vs PBS", "protocol": "FIG. 6. Addition of exogenous TNF-α accelerates osteoporotic fracture repair in vivo. 20 μL of rhTNF-α at 50 ng/ml was injected at the fracture site immediately post fracture and 1 day later. Osteoporosis was induced by ovariectomising mice 4 weeks prior to surgery. (A). At day 14, mice were harvested and limbs scanned by microCT in a blinded fashion. […] At day 28 post fracture the percentage mineralised callus volume in the three groups (normal, those that had undergone oophorectomy and oophrectomised animals treated with TNF-α) were similar. […] (B).\nWe have investigated the effect of adding recombinant human TNF-α at the fracture site in mice rendered osteoporotic by oophorectomy 4 weeks previously."}, "tibial fracture [4]": {"system": "tibial fracture", "assay": "murine tibial fracture model: callus mineralization (microCT) and histology after local administration at fracture site", "format": "in vivo, mouse"}, "[5]": {"details": "human, in vivo, cited from earlier work"}, "bone marrow cells": {"system": "bone marrow cells", "assay": "TNF-α production by bone marrow cells from wild type, TLR-4 and MyD88 knockout mice", "format": "cell-based, mouse", "details": "WT, TLR-4 and MyD88 knockout bone marrow cells", "source_text": "FIG. 11. TNF-α production by bone marrow cells from wild type (WT), TLR-4 and MyD88 knockout mice treated with murine S100A8."}, "PBMCs": {"system": "PBMCs", "assay": "TNF-α production by PBMCs (ELISA, 14 hours)", "format": "cell-based, human", "details": "for TNF-α production by PBMCs: PBMCs 1*10^5/ml, 10% FCS, alarmin at indicated doses", "protocol": "FIG. 10. […] (A) PBMCs at 1*10^5/ml were incubated in 10% fetal calf serum (FCS) with S100 A8 at indicated doses. […] (B) PBMCs at 1*10^5/ml were incubated in 10% FCS with S100 A8 at 0.5 μg/ml with the addition of either antibody to TLR4, TLR2 or isotype controls (not shown), or sRAGE over 14 hours. TNF-α levels were determined by ELISA.\nFIG. 12. […] PBMCs at 1*10^5/ml were incubated in 10% FCS with S100 A8, S100 A9 or S100 A12 at the indicated doses over 14 hours. TNF-α levels were determined by ELISA.\nFIG. 17. […] PBMCs at 1*10^5/ml were incubated in 10% FCS with HMGB1 or LPS at the indicated doses over 14 hours; TNF-α levels were determined by ELISA."}}, "note": "“Also recorded” adds a separate entry of the source. Read-outs that look alike come from different tables or passages of the source."}
{"molecule": "IL-1β: pro-inflammatory cytokine with some osteogenic activity in vitro", "values": [{"measurement": "bone nodule formation in vitro", "setting": "[1]; cytokine alone, human specimens", "result": "does not promote bone nodule formation"}, {"measurement": "alkaline phosphatase production", "setting": "[1]; human muscle-derived stromal cells", "result": "increased alkaline phosphatase production"}]}
{"molecule": "TNF-α", "values": [{"measurement": "effect at 10 fold increase beyond optimal range", "setting": "[1]; 10 ng/ml", "result": "significant diminution in effect"}, {"measurement": "migration and osteogenic differentiation of MDSC", "setting": "[1]", "result": "can migrate and differentiate upon stimulation; also recorded: clear concentration dependency; also recorded: accelerates bone formation within a narrow therapeutic window and is inhibitory at high concentrations"}, {"measurement": "optimal in vitro dose", "setting": "[1]", "result": "0.1 to 1", "unit": "ng/mL"}, {"measurement": "bone formation around implant", "setting": "[2]", "result": "inhibited bone formation"}, {"measurement": "callus mineralization at day 28", "setting": "tibial fracture [3]; \"high\" dose of 5-100 μg/kg", "result": "significantly less callus mineralization"}, {"measurement": "callus mineralization at day 28", "setting": "tibial fracture [3]; \"low\" dose of 50 pg/kg", "result": "indistinguishable from the PBS only control"}, {"measurement": "fracture healing compared to PBS control", "setting": "tibial fracture [3]; doses of 10 pg to 1 ng at fracture site (FIG. 5)", "result": "significantly accelerated healing"}, {"measurement": "fracture healing / callus mineralization", "setting": "tibial fracture [3]", "result": "effective in promoting bone formation and accelerating fracture healing; also recorded: enhanced; also recorded: significantly accelerated healing of the fracture"}, {"measurement": "fracture healing / callus mineralization", "setting": "tibial fracture [3]; listed as rhTNF-α", "result": "accelerate callus mineralization"}, {"measurement": "fracture healing", "setting": "rib fracture; 40 μg/kg/day", "result": "(non significant) improvement in fracture healing"}, {"measurement": "fracture healing", "setting": "rib fracture; daily intra-peritoneal 400 μg/kg", "result": "impaired healing"}, {"measurement": "percentage callus mineralization / fracture healing", "setting": "osteoporotic fracture", "result": "significantly greater"}, {"measurement": "percentage callus mineralization / fracture healing", "setting": "osteoporotic fracture; listed as recombinant human TNF-α", "result": "significantly accelerated fracture healing"}, {"measurement": "percentage mineralised callus volume", "setting": "osteoporotic fracture; day 28 post fracture, normal vs oophorectomy vs oophorectomy + TNF-α", "result": "similar"}, {"measurement": "3D reconstructions of fracture site", "setting": "osteoporotic fracture; rhTNF-α group vs PBS control", "result": "bridging of the fracture site with callus and ossification of the cartilaginous intermediary as well as remodelling of the ossified callus"}, {"measurement": "histology of tibial fracture", "setting": "tibial fracture [4]; 14 days post injury, local TNF-α 50 ng/kg body weight (1 ng/ml) in PBS", "result": "complete bridging of the fracture site by hard callus (bone) and remodelling of the fracture callus"}, {"measurement": "adverse effect, highest doses administered repeatedly", "setting": "[5]; sc", "result": "minor local reactions"}, {"measurement": "adverse effect, highest doses administered repeatedly", "setting": "[5]", "result": "clinically insignificant thrombocytopaenia"}, {"measurement": "single doses found safe", "setting": "[5]", "result": "up to 400 micrograms"}]}
{"molecule": "murine S100A8: murine alarmin S100A8 used on mouse bone marrow cells (protein, UniProt P27005 2-89, looked up) Protein S100-A8: PSELEKALSNLIDVYHNYSNIQGNHHALYKNDFKKMVTTECPQFVQNINIENLFRELDINSDNAINFEEFLAMVIKVGVASHKDSHKE", "values": [{"measurement": "receptor dependence of TNF-α production", "setting": "bone marrow cells", "result": "largely dependent on TLR-4 receptor and absolutely dependent on MyD88"}]}
{"molecule": "recombinant murine IL-10: an anti-inflammatory cytokine (protein, UniProt P18893 19-178, looked up) Interleukin-10: SRGQYSREDNNCTHFPVGQSHMLLELRTAFSQVKTFFQTKDQLDNILLTDSLMQDFKGYLGCQALSEMIQFYLVEVMPQAEKHGPEIKEHLNSLGEKLKTLRMRLRRCHRFLPCENKSKAVEQVKSDFNKLQDQGVYKAMNEFDIFINCIEAYMMIKMKS", "values": [{"measurement": "fracture healing as percentage mineralized callus volume", "setting": "tibial fracture [4]; 14 days post fracture, administered at fracture site", "result": "inhibition of fracture healing"}]}
{"molecule": "HMGB1: alarmin; highly purified HMGB-1 (protein, UniProt P09429 1-215, looked up) High mobility group protein B1: MGKGDPKKPRGKMSSYAFFVQTCREEHKKKHPDASVNFSEFSKKCSERWKTMSAKEKGKFEDMAKADKARYEREMKTYIPPKGETKKKFKDPNAPKRPPSAFFLFCSEYRPKIKGEHPGLSIGDVAKKLGEMWNNTAADDKQPYEKKAAKLKEKYEKDIAAYRAKGKPDAAKKGVVKAEKSKKKKEEEEDEEDEEDEEEEEDEEDEDEEEDDDDE", "values": [{"measurement": "fracture healing", "setting": "tibial fracture [3]; 1 mg/ml at fracture site at days 0 and 1, 28 days post fracture", "result": "significantly (p=0.02) accelerated healing"}, {"measurement": "fracture healing / percentage callus mineralization", "setting": "tibial fracture [3]", "result": "accelerated healing; also recorded: accelerates fracture healing"}, {"measurement": "TNF-α production by PBMCs, HMGB1 with addition of LPS", "setting": "PBMCs; HMGB1 and LPS at indicated doses", "result": "synergistic effect"}, {"measurement": "TNF-α production by PBMCs", "setting": "PBMCs", "result": "not pro-inflammatory in isolation in vitro"}, {"measurement": "TNF-α production by PBMCs", "setting": "PBMCs; listed as HMGB-1", "result": "did not lead to TNF-α production"}]}
{"molecule": "rmHMGB1: exogenous alarmin rmHMGB1 added locally at the fracture site (protein, UniProt P63158 1-215, looked up) High mobility group protein B1: MGKGDPKKPRGKMSSYAFFVQTCREEHKKKHPDASVNFSEFSKKCSERWKTMSAKEKGKFEDMAKADKARYEREMKTYIPPKGETKKKFKDPNAPKRPPSAFFLFCSEYRPKIKGEHPGLSIGDVAKKLGEMWNNTAADDKQPYEKKAAKLKEKYEKDIAAYRAKGKPDAAKKGVVKAEKSKKKKEEEDDEEDEEDEEEEEEEEDEDEEEDDDDE", "values": [{"measurement": "fracture healing / percentage callus mineralization", "setting": "tibial fracture [3]", "result": "accelerates fracture; also recorded: improves callus mineralisation"}]}
{"molecule": "S100A9: alarmin (protein, UniProt P06702 1-114, looked up) Protein S100-A9: MTCKMSQLERNIETIINTFHQYSVKLGHPDTLNQGEFKELVRKDLQNFLKKENKNEKVIEHIMEDLDTNADKQLSFEEFIMLMARLTWASHEKMHEGDEGPGHHHKPGLGEGTP", "values": [{"measurement": "fracture healing / percentage callus mineralization", "setting": "tibial fracture [3]", "result": "no effect"}, {"measurement": "TNF-α production by PBMCs", "setting": "PBMCs", "result": "much lower effect than S100A8"}, {"measurement": "TNF-α production by PBMCs", "setting": "PBMCs; listed as S100 A9", "result": "much less potent than S100 A8"}]}
{"molecule": "S100A8/9: alarmin (protein, UniProt P05109 1-93; P06702 1-114, looked up) Protein S100-A8: MLTELEKALNSIIDVYHKYSLIKGNFHAVYRDDLKKLLETECPQYIRKKGADVWFKELDINTDGAVNFQEFLILVIKMGVAAHKKSHEESHKE Protein S100-A9: MTCKMSQLERNIETIINTFHQYSVKLGHPDTLNQGEFKELVRKDLQNFLKKENKNEKVIEHIMEDLDTNADKQLSFEEFIMLMARLTWASHEKMHEGDEGPGHHHKPGLGEGTP", "values": [{"measurement": "fracture healing / percentage callus mineralization", "setting": "tibial fracture [3]", "result": "no effect"}, {"measurement": "TNF-α production by PBMCs", "setting": "PBMCs", "result": "no activity"}]}
